The results in this text go back to PMC10267100 (Communications Biology, 2023).

Experiment [1] concerns M1 cells overexpressing PTP1B. Nature of the experiment: IL-6 dose response (differentiation) in M1 cells overexpressing PTP1B. Format: cell-based, murine. The following applies: IL-6 dose response, Fig. 1a, approximate. The source says: The M1 murine myeloid leukemic cell line responds in a dose-dependent manner to IL-6 stimulation. Culturing M1 cells in IL-6 results in differentiation from monocytic-like progenitor cells into terminally differentiated macrophages that undergo cell death. […] This was in contrast to five other phosphatases that were similarly overexpressed. Using an Incucyte growth assay, the growth of wild-type M1 cells was compared to that of M1 cells overexpressing HALO-PTP1B both with and without IL-6 (Fig. 1b). […] As expected, there was no difference in the growth rate of any of these cell lines in the absence of IL-6. […] To confirm that the activation loop of the JAKs are indeed a target of PTP1B, dephosphorylation assays with activated recombinant JAK kinase domains were performed in vitro. All four members of the JAK family were dephosphorylated in a PTP1B-dependent manner although JAK1 was dephosphorylated to a lesser extent than others (Fig. 1c). […]
Murine PTP1B with an N-terminal Halo tag was sub-cloned into the Tet-On pfTRE3G expression vector for generation of a stable doxycycline-inducible Halo-mPTP1B expressing HEK293T cell line. […] 24 h post-transfection, cells were lysed in sample reducing buffer and analysed by SDS-PAGE and immunoblot as above (dephosphorylation assays). […]

Experiment [2] has as its system WT M1 parental cells (M1 murine myeloid leukemic cell line). Kind of experiment: IL-6 dose response (differentiation) in WT M1 cells. The class given is cell-based. The following applies: IL-6 dose response, Fig. 1a, approximate. The source says:
The M1 murine myeloid leukemic cell line responds in a dose-dependent manner to IL-6 stimulation. Culturing M1 cells in IL-6 results in differentiation from monocytic-like progenitor cells into terminally differentiated macrophages that undergo cell death. […] This was in contrast to five other phosphatases that were similarly overexpressed. Using an Incucyte growth assay, the growth of wild-type M1 cells was compared to that of M1 cells overexpressing HALO-PTP1B both with and without IL-6 (Fig. 1b). […] As expected, there was no difference in the growth rate of any of these cell lines in the absence of IL-6. […] To confirm that the activation loop of the JAKs are indeed a target of PTP1B, dephosphorylation assays with activated recombinant JAK kinase domains were performed in vitro. All four members of the JAK family were dephosphorylated in a PTP1B-dependent manner although JAK1 was dephosphorylated to a lesser extent than others (Fig. 1c).
Fig. 1 PTP1B dephosphorylates the JAK activation loops. a IL-6 dose response curves for phosphatases overexpressed in the M1 cell line. […] (Top) Immunoblot (IB) probing for phosphorylated-JAK (P-JAK1 antibody) activation loop. (Bottom) Ponceau stained membrane to confirm equal input of proteins on gel. Data are representative of 3 independent experiments. d Overexpression of FLAG-JAK and HALO-PTP1B in HEK293T cells. […]

Consider “IL-6: cytokine used to stimulate M1 cells”, for which the “EC50 of IL-6 (induction of differentiation)” value in experiment [1] was “approximately 10 ng/mL”; in experiment [2], about 2 ng/mL.
